Test results: PMC7998309, “Structural-Based Optimizations of the Marine-Originated Meridianin C as Glucose Uptake Agents by Inhibiting GSK-3β” (Marine Drugs, 2021)

Experiments:
HepG2 cells [1] = experiment: Cell glucose uptake assay in HepG2 cells; type: cell-based, human; settings: relative glucose uptake at 5 µM in HepG2 cells, 3 h, compared with original glucose concentration of the medium; na = not active at 5 µM
Description: (§1) The hepatocyte cell line HepG2 cells obtained from the Type Culture Collection of the Chinese Academy of Sciences (Shanghai, China) were maintained in high-glucose DMEM (Gibco) supplemented with 10% fetal bovine serum (FBS) and 1% penicillin-streptomycin in an atmosphere of 5% CO2 at 37 °C.
Into a 96-well plate, 5 × 10^3 HepG2 cells per well were seeded. After 48 h, phenol red-free DMEM (Gibco) with 1% FBS was transferred to deprive the cells overnight, and then the tested compounds dissolved in a glucose-HEPES buffer (glucose concentration was 100 µg/mL) at a concentration of 5 µM were added to the culture system. Three hours later, the culture supernatants were collected and the glucose concentrations were detected using the Glucose (GO) Assay Kit (Sigma-Aldrich Corp.). Compared with the original glucose concentration of the buffer, the relative glucose uptake was calculated.

[2] = MTT assay for cell viability (cytotoxicity); type: cell-based, human; settings: human; HepG2 cells, 48 h incubation, MTT
Description: as §1
(§2) Into a 96-well plate, 1 × 10^3 HepG2 cells per well were seeded. After 24 h, stock solutions of test compounds in DMSO were diluted in DMEM to ≤0.1% final DMSO concentration. Cells were treated with various concentrations (2.5–25 µM) of tested compounds for 48 h, and the MTT solution (0.5 mg/mL) was added. After 4 h of incubation at 37 °C for MTT-formazan formation, the supernatant was discarded and 100 µL of DMSO was applied into each well to dissolve formazan crystals. Absorbance at 490 nm was determined spectrophotometrically by using a microplate reader (Epoch, BioTek Instruments, Inc., Winooski, VT, USA).

HepG2 cells [3] = experiment: MTT assay for cell viability (cytotoxicity); type: cell-based, human
Description: as §1, §2

human GSK-3β = biological target: T1, human GSK-3β (Homo sapiens, UniProt P49841); experiment: Inhibition of recombinant GSK-3β (Z-lyte assay); type: biochemical; settings: human GSK-3β, top concentration 30 μM
T1 construct: purchased Invitrogen
T1 sequence (P49841 whole entry): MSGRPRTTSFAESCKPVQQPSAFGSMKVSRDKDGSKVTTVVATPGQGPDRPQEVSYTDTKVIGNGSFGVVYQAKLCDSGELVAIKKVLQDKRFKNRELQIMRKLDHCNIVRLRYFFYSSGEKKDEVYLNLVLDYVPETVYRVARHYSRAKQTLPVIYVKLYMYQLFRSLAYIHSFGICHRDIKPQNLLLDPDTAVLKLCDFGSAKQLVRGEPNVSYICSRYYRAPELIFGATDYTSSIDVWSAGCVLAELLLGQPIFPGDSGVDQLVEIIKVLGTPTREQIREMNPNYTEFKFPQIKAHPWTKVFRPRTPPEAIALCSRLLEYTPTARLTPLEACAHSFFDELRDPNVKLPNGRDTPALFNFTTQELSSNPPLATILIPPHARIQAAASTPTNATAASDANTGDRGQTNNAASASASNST
Description: The activity of recombinant GSK-3β (Invitrogen) was measured in a Z-lyte assay of Invitrogen. In this assay, 100 nL of the compound solution in DMSO was transferred to a 384-well assay plate (the compound got threefold serial dilution, and the top concentration of the compound was 30 μM in the final reaction mixture). Then 5 μL of an enzyme (2 nM) and Ser/Thr 9 peptide (4 μM) mixture was added. After the enzyme and peptide pre-incubation with the compound for 30 min at 23 °C, 5 μL of ATP (12 μM) solution was added. The plate was incubated for 60 min at 23 °C. The reaction was stopped with 5 μL of development reagent. Fluorescence signals were detected with Envision (PerkinElmer, America) after 30 min of incubation, and the emission ratio (RFU 460 nm/RFU 535 nm) was used to analyze the data. The relative IC50 was reported using four-parameter logistic fit of IDBS Xlfit software. The IC50 values were calculated using the following equation: %Phosphorylation = 1 - (Emission Ratio × F100%) - C100%/(C0% - C100%) + [Emission Ratio × (F100% - F0%)] where
Emission ratio = Coumarin/Fluorescein ratio of sample wells
C100% = Average coumarin emission signal of the 100% phos. control
C0% = Average coumarin emission signal of the 0% phos. control
F100% = Average fluorescein emission signal of the 100% phos. control
F0% = Average fluorescein emission signal of the 0% phos. control %Inhibition = {1 - %Phos Sample/%Phos 0%Inhibition Ctl}*100

Fc1cccc(F)c1Nc1nccc(-c2c[nH]c3ccc(Br)cc23)n1 [B29, 4-(5-Bromo-1H-indol-3-yl)-N-(2,6-difluorophenyl) pyrimidin-2-amine]
Cell Glucose Uptake (%) (HepG2 cells [1]): 29%
CC50 at 48 h [2]: 22.4 µM
toxicity against HepG2 cells (in words) (HepG2 cells [3]): no significant toxicity
IC50 (human GSK-3β): 5.85 µM
melting point: 263.3 to 264.2 °C
